How the values were obtained:
[1] = system: human hair follicles-derived dermal papilla cells; assay: MTT cell division and activation in dermal papilla cells; assay type: cell-based; settings: peptide 0.5 μg/ml and 5 μg/ml, 48 hours, minoxidil 1 mM positive control
Procedure: (§1) Primary cultured human hair follicles-derived dermal papilla cells and outer root sheath cells were subcultured to passages 2 to 3, and then treated with minoxidil, which has been conventionally used as an agent for preventing hair loss and treating hair growth as a positive control at a concentration of 1 mM, and separately treated with the adiponectin-derived peptide of the present invention prepared in Example 1 at concentrations of 0.5 μg/ml and 5 μg/ml. After 48 hours, the activated living cells were stained with an MTT solution and compared with a negative control group, and the degree of division and activation of the cells was confirmed.

[2] = system: human hair follicles-derived outer root sheath cells; assay: MTT cell division and activation in outer root sheath cells; assay type: cell-based; settings: peptide 0.5 μg/ml and 5 μg/ml, 48 hours, minoxidil 1 mM positive control
Procedure: as §1

Row | Substance | cell division of dermal papilla cells [1] | cell division of outer root sheath cells [2]
1 | GLYYF (P5 peptide from adiponectin (GLYYF)) [adiponectin-derived 5-mer peptide] | more excellent effect than minoxidil | more excellent effect than minoxidil
2 | NIPGL (P10 peptide from adiponectin (NIPGL)) [adiponectin-derived 5-mer peptide] | more excellent effect than minoxidil | more excellent effect than minoxidil

From US11771636B2, “Composition for promoting hair growth comprising adiponectin-derived peptide” (JUNGJINHO EFFECT INC., priority 2018, dated 2023)
